The text below walks through data of ChEMBL document CHEMBL1132609, “Discovery of a novel class of selective non-peptide antagonists for the human neurokinin-3 receptor. 2. Identification of (S)-N-(1-phenylpropyl)-3-hydroxy-2-phenylquinoline-4-carboxamide (SB 223412)” (J Med Chem, 1999).

One assay has as its target T1, Neuromedin-K receptor (Homo sapiens, UniProt P29371).
T1 sequence (P29371 whole entry): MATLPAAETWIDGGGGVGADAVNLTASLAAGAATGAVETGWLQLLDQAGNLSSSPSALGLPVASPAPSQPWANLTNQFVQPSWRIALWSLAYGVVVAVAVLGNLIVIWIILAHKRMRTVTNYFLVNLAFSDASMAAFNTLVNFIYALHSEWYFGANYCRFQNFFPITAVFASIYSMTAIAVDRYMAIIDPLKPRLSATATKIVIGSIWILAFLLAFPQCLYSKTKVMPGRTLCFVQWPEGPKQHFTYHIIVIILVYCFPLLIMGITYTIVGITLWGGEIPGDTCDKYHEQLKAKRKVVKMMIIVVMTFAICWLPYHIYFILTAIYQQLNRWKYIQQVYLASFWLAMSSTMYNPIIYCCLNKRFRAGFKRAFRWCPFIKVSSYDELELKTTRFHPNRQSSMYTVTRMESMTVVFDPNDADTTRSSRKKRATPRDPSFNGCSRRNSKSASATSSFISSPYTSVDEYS
Put plainly: Binding affinity towards cloned human Tachykinin receptor 3 (hNK-3) expressed in CHO cells using [125I][MePhe7]-NKB. The format is cell-based.

A further assay deals with T2, Substance-K receptor (Homo sapiens, UniProt P21452).
T2 sequence (P21452 whole entry): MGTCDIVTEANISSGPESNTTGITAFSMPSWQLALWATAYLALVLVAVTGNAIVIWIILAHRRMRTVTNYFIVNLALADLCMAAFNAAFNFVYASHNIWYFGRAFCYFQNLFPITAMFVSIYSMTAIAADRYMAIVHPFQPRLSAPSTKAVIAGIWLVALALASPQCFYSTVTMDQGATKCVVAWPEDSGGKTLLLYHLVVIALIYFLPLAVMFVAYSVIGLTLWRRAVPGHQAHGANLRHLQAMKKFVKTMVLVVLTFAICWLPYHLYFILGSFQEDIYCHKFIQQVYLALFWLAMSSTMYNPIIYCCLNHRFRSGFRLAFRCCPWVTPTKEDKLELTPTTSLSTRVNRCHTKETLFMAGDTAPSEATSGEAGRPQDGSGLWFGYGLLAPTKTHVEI
Kind of assay: Binding affinity towards cloned human Tachykinin receptor 2 (hNK-2) expressed in CHO cells using [125I]NKA.

In a further assay the target is Substance-P receptor (Homo sapiens, UniProt P25103). Kind of assay: Binding affinity towards cloned human Tachykinin receptor 1 (hNK-1) expressed in CHO cells using [3H]substance P.
Sequence of Substance-P receptor (P25103 whole entry): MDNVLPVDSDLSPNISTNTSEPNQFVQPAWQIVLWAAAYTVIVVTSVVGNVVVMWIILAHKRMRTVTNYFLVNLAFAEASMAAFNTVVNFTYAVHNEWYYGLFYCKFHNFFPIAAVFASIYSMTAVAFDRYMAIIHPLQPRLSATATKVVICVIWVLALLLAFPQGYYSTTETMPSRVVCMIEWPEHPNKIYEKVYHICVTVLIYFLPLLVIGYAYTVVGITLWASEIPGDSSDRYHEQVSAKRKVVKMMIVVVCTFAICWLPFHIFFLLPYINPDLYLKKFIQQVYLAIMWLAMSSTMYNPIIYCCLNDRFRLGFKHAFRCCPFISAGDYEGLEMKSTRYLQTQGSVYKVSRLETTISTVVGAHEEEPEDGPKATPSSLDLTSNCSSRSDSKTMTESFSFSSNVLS
Assay [1] has as its target Neuromedin-K receptor (Oryctolagus cuniculus). Put plainly: In vitro functional activity as antagonism of senktide-induced contractions in RISM (Rabbit Isolated Iris Sphincter Muscle) containing NK-3 receptor.

Usually Ki stands for a measure of affinity in units of concentration, obtained from inhibition or displacement. A low value points to a stronger hold on the target. Broadly, the Kb is the affinity of an antagonist, worked out from how it opposes an agonist. Low readings indicate higher antagonist affinity, high ones lower antagonist affinity.

On Neuromedin-K receptor, `CCOC(=O)COc1c(-c2ccccc2)nc2ccccc2c1C(=O)NC(CC)c1ccccc1` (single isomer, unassigned) had a Ki of 2 nM.

In the case of `NC(=O)C(NC(=O)c1cc(-c2ccccc2)nc2ccccc12)c1ccccc1` (stereo not drawn), the Ki at Neuromedin-K receptor is 983 nM.

On Neuromedin-K receptor, `CCC(NC(=O)c1c(NC(C)=O)c(-c2ccccc2)nc2ccccc12)c1ccccc1` (single isomer, unassigned) showed a Ki of 15.9 nM.

Turning to `CC[C@@H](NC(=O)c1c(CN(C)C)c(-c2ccccc2)nc2ccccc12)c1ccccc1`, the results for the inhibitory constant (Ki) at Neuromedin-K receptor, at Substance-K receptor and at Substance-P receptor were 2.2 nM, 172 nM and > 100000 nM, respectively.

On Neuromedin-K receptor, `CN(C)C(=O)C(NC(=O)c1cc(-c2ccccc2)nc2ccccc12)c1ccccc1` (stereo not drawn) showed a Ki of 488 nM.

On Neuromedin-K receptor, `O=C(NC1(c2ccccc2)CCCC1)c1cc(-c2ccccc2)nc2ccccc12` showed a Ki of 129 nM.

Compound `CCC(NC(=O)c1c(OCCN)c(-c2ccccc2)nc2ccccc12)c1ccccc1` (single isomer, unassigned) gave a Ki at Neuromedin-K receptor of 4.7 nM.

`CCC(NC(=O)c1c(NC(=O)CN(C)C)c(-c2ccccc2)nc2ccccc12)c1ccccc1` (single isomer, unassigned): at Neuromedin-K receptor, the Ki is 10.7 nM.

`CCCCCCCC(NC(=O)c1cc(-c2ccccc2)nc2ccccc12)c1ccccc1` (stereo not drawn): affinity on Neuromedin-K receptor was put at a Ki of 4870 nM.

With `CC(C)C(NC(=O)c1cc(-c2ccccc2)nc2ccccc12)c1ccccc1` (stereo not drawn), the Ki on Neuromedin-K receptor came to 74.3 nM.

Compound `O=C(NC(CO)c1ccccc1)c1cc(-c2ccccc2)nc2ccccc12` (stereo not drawn) showed a Ki on Neuromedin-K receptor of 207 nM.

The compound `CC[C@@H](NC(=O)c1c(F)c(-c2ccccc2)nc2ccccc12)c1ccccc1` showed a Ki at Neuromedin-K receptor of 30.3 nM.

At Neuromedin-K receptor, `COCC(NC(=O)c1cc(-c2ccccc2)nc2ccccc12)c1ccccc1` (stereo not drawn) yielded a Ki of 314 nM.

On to `CC[C@@H](NC(=O)c1c(N)c(-c2ccccc2)nc2ccccc12)c1ccccc1`, for which the values for the Ki on Substance-K receptor and at Substance-P receptor were 111 nM and > 100000 nM, respectively.

`NC[C@@H](NC(=O)c1cc(-c2ccccc2)nc2ccccc12)c1ccccc1` had a Ki at Neuromedin-K receptor of 1140 nM.

For `CC[C@@H](NC(=O)c1c(OCCO)c(-c2ccccc2)nc2ccccc12)c1ccccc1`, the Ki on Neuromedin-K receptor was 1.5 nM; on Substance-K receptor, 82 nM; at Substance-P receptor, > 100000 nM.

On Neuromedin-K receptor, `CC[C@@H](NC(=O)c1c(OCC(=O)N(C)C)c(-c2ccccc2)nc2ccccc12)c1ccccc1` came in with a Ki of 2.4 nM. In other words, the single-digit nanomolar range.

On to `CCCCc1c(-c2ccccc2)nc2ccccc2c1C(=O)NC(CC)c1ccccc1` (stereo not drawn), for which, on Neuromedin-K receptor, the Ki worked out at 15.2 nM.

For `CN(C)C[C@@H](NC(=O)c1cc(-c2ccccc2)nc2ccccc12)c1ccccc1`, affinity at Neuromedin-K receptor was put at a Ki of 1070 nM.

With `CC[C@@H](NC(=O)c1cc(-c2ccccc2)nc2ccccc12)c1ccccc1`, the Ki is 237 nM at Substance-K receptor and > 100000 nM on Substance-P receptor.

At Neuromedin-K receptor, `O=C(NC(c1ccccc1)c1ccccc1)c1cc(-c2ccccc2)nc2ccccc12` returned a Ki of 134 nM.

Compound `O=C(NC(CCO)c1ccccc1)c1cc(-c2ccccc2)nc2ccccc12` (stereo not drawn) yielded a Ki at Neuromedin-K receptor of 382 nM.

On to `CCC(NC(=O)c1c(Br)c(-c2ccccc2)nc2ccccc12)c1ccccc1` (single isomer, unassigned), for which the affinity at Neuromedin-K receptor, expressed as Ki, was 37.2 nM.

`CCC(NC(=O)c1c(OCCN(C)C)c(-c2ccccc2)nc2ccccc12)c1ccccc1` (single isomer, unassigned) gave a Ki at Neuromedin-K receptor of 5.7 nM.

As for `CCC(NC(=O)c1c(OC)c(-c2ccccc2)nc2ccccc12)c1ccccc1` (stereo not drawn), the Ki at Neuromedin-K receptor stood at 5.8 nM.

Take `CC(C)(NC(=O)c1cc(-c2ccccc2)nc2ccccc12)c1ccccc1`: the Ki on Neuromedin-K receptor was found to be 295 nM.

Regarding `CCCCC(NC(=O)c1cc(-c2ccccc2)nc2ccccc12)c1ccccc1` (stereo not drawn), the Ki on Neuromedin-K receptor came to 146 nM.

Regarding `CC(=O)C(NC(=O)c1cc(-c2ccccc2)nc2ccccc12)c1ccccc1` (stereo not drawn), the Ki at Neuromedin-K receptor stood at 27.4 nM.

Compound `CC(NC(=O)c1cc(-c2ccccc2)nc2ccccc12)c1ccccc1` (stereo not drawn) gave a Ki at Neuromedin-K receptor of 264 nM.

Regarding `CCC(NC(=O)c1c(OC)c(-c2ccccc2)nc2ccccc12)c1ccccc1` (single isomer, unassigned) [listing 1 of 2 here], in assay [1], the antagonist dissociation constant (Kb) was 1.8 nM.

At Neuromedin-K receptor, `CCCCCCc1c(-c2ccccc2)nc2ccccc2c1C(=O)NC(CC)c1ccccc1` (stereo not drawn) gave a Ki of 55.4 nM.

With `CCc1c(-c2ccccc2)nc2ccccc2c1C(=O)N[C@H](CC)c1ccccc1`, the values for the inhibition constant Ki on Substance-K receptor and on Substance-P receptor were 316 nM and > 100000 nM, respectively.

`CCCc1c(-c2ccccc2)nc2ccccc2c1C(=O)NC(CC)c1ccccc1` (stereo not drawn) came in with a Ki at Neuromedin-K receptor of 13.7 nM.

Take `CC[C@@H](NC(=O)c1c(OCC(=O)O)c(-c2ccccc2)nc2ccccc12)c1ccccc1`: the Ki at Substance-K receptor was 214 nM; on Substance-P receptor it was > 100000 nM.

Consider `CCCC(NC(=O)c1cc(-c2ccccc2)nc2ccccc12)c1ccccc1` (stereo not drawn), for which the Ki on Neuromedin-K receptor was found to be 47.2 nM. This lies in the double-digit nanomolar range.

Regarding `CCC(NC(=O)c1c(OCCCN(C)C)c(-c2ccccc2)nc2ccccc12)c1ccccc1` (single isomer, unassigned), the inhibition constant (Ki) at Neuromedin-K receptor was found to be 8.6 nM.

Turning to `O=C(NC(Cc1ccccc1)c1ccccc1)c1cc(-c2ccccc2)nc2ccccc12` (stereo not drawn), affinity on Neuromedin-K receptor was put at a Ki of 3510 nM.

Turning to `CCC(NC(=O)c1c(OC)c(-c2ccccc2)nc2ccccc12)c1ccccc1` (single isomer, unassigned) [listing 2 of 2 here], the results for the Ki at Neuromedin-K receptor, at Substance-K receptor and on Substance-P receptor were 1.8 nM, 329 nM and > 100000 nM, respectively.

For the compound `CC[C@@H](NC(=O)c1c(C)c(-c2ccccc2)nc2ccccc12)c1ccccc1`, the Ki on Substance-K receptor was 277 nM; at Substance-P receptor, > 100000 nM.

Take `CC[C@@H](NC(=O)c1c(Cl)c(-c2ccccc2)nc2ccccc12)c1ccccc1`: the affinity on Neuromedin-K receptor, expressed as Ki, was 29.9 nM.

Regarding `O=C(N[C@H](C(=O)O)c1ccccc1)c1cc(-c2ccccc2)nc2ccccc12`, the affinity on Neuromedin-K receptor corresponds to a Ki of 1650 nM. Against the preceding compound, the Ki is about 55-fold higher.

For the compound `O=C(NC(c1ccccc1)C(F)(F)F)c1cc(-c2ccccc2)nc2ccccc12` (stereo not drawn), the Ki on Neuromedin-K receptor turned out to be 454 nM.

For `CCC(NC(=O)c1c(-c2ccccc2)c(-c2ccccc2)nc2ccccc12)c1ccccc1` (stereo not drawn), the inhibition constant (Ki) at Neuromedin-K receptor came out at 45.3 nM.

Consider `CCC(NC(=O)c1c(OCC(N)=O)c(-c2ccccc2)nc2ccccc12)c1ccccc1` (single isomer, unassigned), for which, at Neuromedin-K receptor, the affinity corresponds to a Ki of 6.3 nM.

In turn, `CNC(=O)C(NC(=O)c1cc(-c2ccccc2)nc2ccccc12)c1ccccc1` (stereo not drawn) showed a Ki on Neuromedin-K receptor of 426 nM.

The compound `COC(=O)CC(NC(=O)c1cc(-c2ccccc2)nc2ccccc12)c1ccccc1` (stereo not drawn) had an inhibitory constant (Ki) at Neuromedin-K receptor of 973 nM.

In the case of `CCC(NC(=O)c1c(OCCN2CCCC2)c(-c2ccccc2)nc2ccccc12)c1ccccc1` (single isomer, unassigned), affinity on Neuromedin-K receptor was put at a Ki of 6.8 nM. Against the preceding compound, the Ki is about 140-fold lower.
